Literature values as cited in patent US20040198651A1, “Secreted proteins” (priority 2001, published 2004).

How the values were obtained:
[1] = intranasal; relative to hydrocortisone
[2] = relative to progesterone

Molecule: C[C@H]1C[C@H]2[C@@H]3CCC4=CC(=O)C=C[C@]4(C)[C@@]3(Cl)[C@@H](O)C[C@]2(C)[C@@]1(O)C(=O)CO [beclomethasone]
- anti-inflammatory and vasoconstrictive effects greater than those produced by hydrocortisone [1]: 5000 times

Molecule: 6α-methyl-17-hydroxyprogesterone [medroxyprogesterone]
- pharmacological activity greater than progesterone [2]: about 15 times
